Counter-ions that a name gives are not always drawn.
What was measured:
[1] = test system: CGS 21680-induced catalepsy in mice; test: Activity on CGS 21680-induced Catalepsy; assay type: in vivo, mouse (male ddY); conditions: 10 mg/kg oral; for Total score (catalepsy): 10 animals, maximum 50 points, control 48; for Number of Animals showing remission: catalepsy score 4 points or less in 10 cases; for inhibition in vivo at 10 mg/kg: Mus musculus, CGS 21680-induced catalepsy, read-out: Remission ratio (%)
Procedure, shortened: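 Male ddY mice (5 weeks, 10 per group) received CGS 21680 10 μg/20 μl intracerebroventricularly; test compounds given orally at 10 mg/kg in 0.3% Tween 80 suspension. Catalepsy scored 1 h after dosing on a 4.5 cm bar; total group score (maximum 50) compared with control; ≤4 per animal counted as remission.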

[2] = test system: haloperidol-induced catalepsy in mice; test: Activity on haloperidol-induced Catalepsy; assay type: in vivo, mouse (male ddY); conditions: 10 mg/kg oral; for Total score (catalepsy): 10 animals, maximum 50 points, control 50; for Number of Animals showing remission: catalepsy score 4 points or less in 10 cases; for Remission ratio (%): haloperidol-induced catalepsy
Method: Activity on haloperidol-induced Catalepsy
Parkinson's disease is a disease based on the degeneration and cell death of the nigrostriatal dopaminergic neuron. When haloperidol (dopamine D1/D2 antagonist) is administered, catalepsy is induced by the block of postsynaptic D2 receptor. This haloperidol-induced catalepsy is known as a classic model in which symptoms of Parkinson's disease are produced by drug administration [European Journal of Pharmacology, 182: 327 (1990) and U.S. Pat. No. 3,991,207].
This test was carried out using 10 animals per group of male ddY mice of 5 week age (22 to 24 g in body weight, Japan SLC). Haloperidol (manufacturedby Janssen) was suspended in 0.3% CMC and administered intraperitoneally into mice at a dose of 1.0 mg/kg. Each test compound was used by mixing it with Tween 80 and then suspending it in distilled water for injection (manufactured by Otsuka Pharmaceutical). Also, L-DOPA (manufactured by Kyowa Hakko Kogyo Co., Ltd.) and benserazide HCl (manufactured by Kyowa Hakko Kogyo Co., Ltd.) were used by suspending them in 0.3% CMC. […] All of the test compounds were administered orally in a dose of 10 mg/kg, and 100 mg/kg of L-DOPA and 25 mg/kg of benserazide were used in combination as a control drug and administered by intraperitoneal injection. The catalepsy score was evaluated by the judging criteria shown in the above-described Table 3.
The effect was judged by total catalepsy scores of 10 animals in one group (the maximum is 50 points). When the total score was 40 points or less, the activity of drugs was judged positive. The number of animals showing remission of catalepsy was expressed by the number of cases in which the catalepsy score was 4 points or less in 10 cases. The catalepsy remission ratio was expressed as the percentage of the total score in the test compound-administered group to the total score in the control group.

adenosine A2A receptor = target: T1, adenosine A2A receptor (Rattus norvegicus, UniProt P30543); test: Adenosine receptor binding activity (adenosine A2A receptor binding test), 3H-CGS 21680 binding; conditions: 2 h, read-out: A2A receptor inhibition ratio (%); for inhibition at 0.1 µM: 10^-7 M; for inhibition at 0.01 µM: 10^-8 M
T1 construct: from tissue; host or cells: rat corpus striatum, washed membrane suspension
Method: Adenosine receptor binding activity (adenosine A2A receptor binding test) This test was carried out by slightly modifying the method of Bruns et al. [Molecular Pharmacology, 29: 331 (1986)].
Corpus striatum of a rat was suspended in an ice-cooled 50 mM tris(hydroxymethyl)aminomethane hydrochloride (hereinafter referred to as "Tris-HCl") buffer (pH 7.7) using Polytron Homogenizer (manufactured by Kinematica Co.). The suspension was centrifuged (50,000×g, 10 minutes), and the obtained precipitate was re-suspended in the same amount of 50 mM Tris-HCl buffer. The suspension was centrifuged under the same conditions, and the final precipitate was suspended in 50 mM Tris-HCl [containing 10 mM magnesium chloride and 0.02 unit/mg tissue of adenosine deaminase (manufactured by Sigma Co.)] to give a tissue concentration of 5 mg (wet weight)/ml.
To 1 ml of the tissue suspension thus prepared were added 50 μl of tritium-labeled CGS 21680 {^3 H-2-[p-(2-carboxyethyl)phenethylamino]-5'-N-ethylcarboxamido)adenosine: 40 Ci/mmol; manufactured by New England Nuclear Co.[The Journal of Pharmacology and Experimental Therapeutics, 251: 888 (1989)]} (final concentration:4.0 nM) and 50 μl of a test compound. The resulting mixture was allowed to stand for 120 minutes at 25° C., and then rapidly filtered by suction through a glass fiber filter (GF/C, manufactured by Whatman Co.) The filter was immediately washed three times with […] of an ice-cooled 50 mM Tris-HCl buffer, and transferred to a vial, a scintillator (EX-H , manufactured by Wako Pure Chemical Industries, Ltd.) was added thereto, and the radioactivity on the filter was determined with a liquid scintillation counter (manufactured by Packard Instrument Co.) […]
The inhibition ratio of the test compound against the A2A receptor binding (^3 H-CGS 21680 binding) was calculated by the following equation:
Inhibition ratio (%)={1-(Amount of the binding in the presence of the test compound-Amount of the nonspecific binding)/(Amount of the total binding-Amount of the nonspecific binding)}×100
(Note) Amount of the total binding means the amount of radioactivity of ^3 H-CGS 21680 bound in the absence of the test compound. Amount of the nonspecific binding means the amount of radioactivity of ^3 H-CGS 21680 bound in the presence of 100 μM cyclopentyladenosine (CPA, manufactured by Sigma Co.) Amount of the binding in the presence of the test compound means the amount of radioactivity of ^3 H-CGS 21680 bound in the presence of the test compound at various levels of concentrations.

[3] = test system: clonidine-induced aggressive behavior in mice; test: Activity on Clonidine-induced Aggressive Behavior; assay type: in vivo, mouse (male ddY); conditions: 10 mg/kg po
Method: Activity on Clonidine-induced Aggressive Behavior
Effect of test compounds to increase aggressive behavior induced by the intraperitoneal injection of clonidine [European Journal of Pharmacology, 29: 374 (1968)] was examined.
This test was carried out using 2 animals per group of male ddY mice of 20 to 25 g in body weight (Japan SLC). Each test compound was used by mixing it with Tween 80 and then suspending it in distilled water for injection (manufactured by Otsuka Pharmaceutical), and clonidine hydrochloride (manufactured by Sigma Co.) was used by dissolving it in physiological saline (manufactured by Otsuka Pharmaceutical). […] The number of aggressive behavior of each mouse was measured for 30 minutes immediately after the administration of clonidine. The effect was judged by comparing values of the number of aggressive behavior in the control and those in test compound-administered groups (significance test: Student t-test).

T1 sequence (P30543 whole entry): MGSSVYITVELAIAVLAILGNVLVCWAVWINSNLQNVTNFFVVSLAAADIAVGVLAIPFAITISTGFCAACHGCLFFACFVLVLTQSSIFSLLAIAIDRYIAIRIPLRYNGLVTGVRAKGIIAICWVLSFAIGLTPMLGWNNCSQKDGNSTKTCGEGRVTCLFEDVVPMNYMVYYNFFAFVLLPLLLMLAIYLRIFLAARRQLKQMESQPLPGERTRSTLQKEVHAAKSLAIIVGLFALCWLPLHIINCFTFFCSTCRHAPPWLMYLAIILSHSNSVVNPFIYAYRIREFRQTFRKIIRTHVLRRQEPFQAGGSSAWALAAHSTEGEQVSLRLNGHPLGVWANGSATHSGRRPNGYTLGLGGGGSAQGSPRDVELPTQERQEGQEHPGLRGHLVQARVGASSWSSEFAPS

SMILES	Total score (catalepsy) [1]	Number of Animals showing remission [1]	inhibition in vivo at 10 mg/kg [1] [%]	Total score (catalepsy) [2]	Number of Animals showing remission [2]	Remission ratio (%) [2] [%]	inhibition at 0.1 µM (adenosine A2A receptor) [%]	inhibition at 0.01 µM (adenosine A2A receptor) [%]	Number of attacks in test compound group/number of attacks in control group [3]	Number of attacks (count; average ± S.E.M.), test compound group ([3]; *: p < 0.05, 10 animals) [count]
COc1cccc(OC)c1Oc1cc2nc(-c3ccco3)nn2c(N)n1 [Compound 32, 5-Anino-7-(2,6-dimethoxyphenoxy)-2-(2-furyl)[1,2,4]triazolo[1,5-c]pyrimidine]	21	9	54	37	5	26	89	71		
Nc1nc(N2CCN(CCc3ccccc3)CC2)cc2nc(-c3ccco3)nn12 [Compound 46, 5-Amino-2-(2-furyl)-7-[4-(2-phenylethyl)piperazinyl][1,2,4]triazolo[1,5-c]pyrimidine]	9	10	78	13	10	74	79	35		
Nc1nc(N2CCOCC2)cc2nc(-c3ccco3)nn12 [Compound 39, 5-Amino-2-(2-furyl)-7-morpholino[1,2,4]triazolo[1.5-c]pyrimidine]	20	9	56						8.1	9.70 ± 3.42
Nc1nc(N2CCN(Cc3ccccc3)CC2)cc2nc(-c3ccco3)nn12 [Compound 42, 5-Amino-7-(4-benzylpiperazinyl)2-(2-furyl)[1,2,4]triazolo[1,5-c]pyrimidine]	12	9	72	1	10	98	82	43		
COc1ccc(OC)c(CN2CCN(c3cc4nc(-c5ccco5)nn4c(N)n3)CC2)c1 [Compound 75, 5-Amino-7-((2,5-dimethoxybenzyl)piperazinyl)-2-(2-furyl)[1,2,4]triazolo[1,5-c]pyrimidine]	10	9	76				84			
Nc1nc(N2CCN(Cc3ccccc3F)CC2)cc2nc(-c3ccco3)nn12 [Compound 78, 5-Amino-7-(4-(2-fluorobenzyl)piperazinyl)-2-(2-furyl)[1,2,4]triazolo[1,5-c]pyrimidine]	6	10	86				85			
CCOCCN1CCN(c2cc3nc(-c4ccco4)nn3c(N)n2)CC1 [Compound 96, 5-Amino-7-(4-(2-ethoxyethyl)piperazinyl)-2-(2-furyl)[1,2,4]triazolo[1,5-c]pyrimidine]	7	9	86				58			
C[C@@H]1CN(c2cc3nc(-c4ccco4)nn3c(N)n2)C[C@H](C)N1CCO [Compound 120, 5-Amino-7-(cis-3,5-dimethyl-4-(2-hydroxyethyl)piperazinyl)-2-(2-furyl)[1,2,4]triazolo[1,5-c]pyrimidine]	3	10	94				29			
Nc1nc(N2CCN(c3ccccn3)CC2)cc2nc(-c3ccco3)nn12 [Compound 93, 5-Amino-2-(2-furyl)-7-(4-(2-pyridyl)piperazinyl)[1,2,4]triazolo[1,5-c]pyrimidine]	10	8	66				36			
CCOC(=O)c1cnc(N)n2nc(-c3ccco3)nc12 [Compound 55, 5-Amino-8-ethoxycarbonyl-2-(2-furyl)[1,2,4]triazolo[1,5-c]pyrimidine]	29	9	36	35	5	30				
N#Cc1ccccc1CSc1cc2nc(-c3ccco3)nn2c(N)n1 [Compound 188, 5-Amino-7-(2-cyanobenzylthio)-2-(2-furyl)[1,2,4]triazolo[1,5-c]pyrimidine]	15	2	70				91			
Nc1nc(N2CCN(Cc3ccccn3)CC2)cc2nc(-c3ccco3)nn12 [Compound 84, 5-Amino-2-(2-furyl)-7-(4-(2-picolyl)piperazinyl)[1,2,4]triazolo[1,5-c]pyrimidine]	9	9	78				63			
COCCCN1CCN(c2cc3nc(-c4ccco4)nn3c(N)n2)CC1 [Compound 99, 5-Amino-2(2-furyl)-7-(4-(3-methoxypropyl)piperazinyl)[1,2,4]triazolo[1,5-c]pyrimidine]	5	10	90				59			
Nc1nc(N2CCN(CCOc3ccccc3)CC2)cc2nc(-c3ccco3)nn12 [Compound 90, 5-Amino-2-(2-furyl)-7-(4-(2-phenoxyethyl)piperazinyl)[1,2,4]triazolo[1,5-c]pyrimidine hydrochloride]	12	9	80				82			
